Data from ChEMBL document CHEMBL5338722, “Optical-Controlled Kinetic Switch: Fine-Tuning of the Residence Time of an Antagonist Binding to the Vasopressin V2 Receptor in In Vitro, Ex Vivo, and In Vivo Models of ADPKD” (J Med Chem, 2023).

How the values were obtained:
Format in all cases: cell-based
Vasopressin V2 receptor [1] = biological target: T1, Vasopressin V2 receptor (Homo sapiens, UniProt P30518); assay: Displacement of conivaptan-red fluorescent probe from SNAP-tagged human vasopressin V2 receptor expressed in HEK293 cells compound pre-illuminated for 10 mins with light at 365 nm and further incubated for 1 hr by HTRF assay
Vasopressin V2 receptor [2] = biological target: T1, Vasopressin V2 receptor; assay: Displacement of conivaptan-red fluorescent probe from SNAP-tagged human vasopressin V2 receptor expressed in HEK293 cells at 10 uM compound pre-illuminated for 10 mins with light at 365 nm and further incubated for 1 hr by HTRF assay relative to control; details: filed as antagonist
Vasopressin V2 receptor [3] = biological target: T1, Vasopressin V2 receptor; assay: Displacement of conivaptan-red fluorescent probe from SNAP-tagged human vasopressin V2 receptor expressed in HEK293 cells at 10 uM compound pre-illuminated for 10 mins with light at 435 nm and further incubated for 1 hr by HTRF assay relative to control
Vasopressin V2 receptor [4] = biological target: T1, Vasopressin V2 receptor; assay: Displacement of conivaptan-red fluorescent probe from SNAP-tagged human vasopressin V2 receptor expressed in HEK293 cells compound pre-illuminated for 10 mins with light at 435 nm and further incubated for 1 hr by HTRF assay

T1 sequence (P30518 whole entry): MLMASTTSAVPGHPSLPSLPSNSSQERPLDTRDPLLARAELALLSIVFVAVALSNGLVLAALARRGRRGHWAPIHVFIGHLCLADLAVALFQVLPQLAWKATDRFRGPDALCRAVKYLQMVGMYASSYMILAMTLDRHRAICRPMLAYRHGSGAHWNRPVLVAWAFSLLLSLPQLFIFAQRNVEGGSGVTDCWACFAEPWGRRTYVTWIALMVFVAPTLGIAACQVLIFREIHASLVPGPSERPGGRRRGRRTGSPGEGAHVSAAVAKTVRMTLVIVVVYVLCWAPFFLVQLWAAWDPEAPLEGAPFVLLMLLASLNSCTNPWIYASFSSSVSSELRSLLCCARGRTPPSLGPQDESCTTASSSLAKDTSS

## O=C(c1ccc(/N=N\c2ccccc2)cc1Cl)N1Cc2cccn2Cc2ccccc21
Vasopressin V2 receptor [1]
  Ki: 93 nM

## O=C(c1ccc(/N=N\c2ccc(F)cc2)cc1Cl)N1Cc2cccn2Cc2ccccc21
Vasopressin V2 receptor [1]
  Ki: 289 nM

## O=C(c1ccc(/N=N\c2ccc(C(F)(F)F)cc2)cc1Cl)N1Cc2cccn2Cc2ccccc21
Vasopressin V2 receptor [1]
  Ki: 5280 nM

## O=C(c1ccc(/N=N\c2ccccc2-c2ccccc2)cc1Cl)N1Cc2cccn2Cc2ccccc21
Vasopressin V2 receptor [1]
  Ki: 787 nM

## O=C(c1ccc(/N=N\c2cccc(-c3ccccc3)c2)cc1Cl)N1Cc2cccn2Cc2ccccc21
Vasopressin V2 receptor [1]
  Ki: 663 nM

## Cc1ccc(F)cc1/N=N\c1ccc(C(=O)N2Cc3cccn3Cc3ccccc32)c(Cl)c1
Vasopressin V2 receptor [1]
  Ki: 1700 nM

## O=C(c1ccc(/N=N\c2ccc(-c3ccccc3)cc2)cc1Cl)N1Cc2cccn2Cc2ccccc21
Vasopressin V2 receptor [2]
  inhibition: 51%

## O=C(c1ccc(/N=N/c2ccc(-c3ccccc3)cc2)cc1Cl)N1Cc2cccn2Cc2ccccc21
Vasopressin V2 receptor [3]
  inhibition: 33%

## O=C(c1ccc(/N=N/c2ccccc2)cc1Cl)N1Cc2cccn2Cc2ccccc21
Vasopressin V2 receptor [4]
  Ki: 289 nM

## O=C(c1ccc(/N=N/c2ccccc2-c2ccccc2)cc1Cl)N1Cc2cccn2Cc2ccccc21
Vasopressin V2 receptor [4]
  Ki: 279 nM
